Assay results as given in ChEMBL document CHEMBL1201862, “PubChem BioAssay data set” (2004).
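Five concentrations, 48 hours, 96-well plates. GI50 = concentration required for 50% inhibition of growth.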 Calls of active or inactive are those of the source. Rule as the data show it: active = GI50 up to about 1.1 µM and inactive = higher. Non-standard residues stand in square brackets, D forms with d. Residues, ends and D or L forms follow the SMILES beside them. ξ: configuration not given here. *: point of attachment. ξNMeF = CNC(Cc1ccccc1)C(=O)O; NMeV = CN[C@H](C(=O)O)C(C)C; Boc = CC(C)(C)OC(=O)*; OBn = c1ccc(CO*)cc1

Assays:
Assay in all cases: DTP human tumour cell line panel, 48 h
M19-MEL = test system: M19-MEL
DLD-1 = test system: DLD-1
CCRF-CEM = test system: CCRF-CEM
NCI-H460 = test system: NCI-H460
COLO 205 = test system: COLO 205
KM12 = test system: KM12
OVCAR-4 = test system: OVCAR-4
NCI-H23 = test system: NCI-H23
DMS-273 = test system: DMS-273
SK-OV-3 = test system: SK-OV-3
LXFL 529 = test system: LXFL 529
ACHN = test system: ACHN
U-251 = test system: U-251
SF-295 = test system: SF-295
NCI-H226 = test system: NCI-H226
SNB-75 = test system: SNB-75

Measured: GI50

O=c1cc(/C=C/c2ccccc2)c2ccc(O/C(=C\c3ccccc3)c3nc4ccccc4c(=O)o3)cc2o1
inactive: M19-MEL 25.3 µM | DLD-1 26.7 µM | CCRF-CEM 16.9 µM | NCI-H460 23.3 µM | COLO 205 22.2 µM | KM12 15.7 µM | OVCAR-4 27.2 µM | NCI-H23 10.6 µM | DMS-273 23 µM | SK-OV-3 39.4 µM | LXFL 529 14.8 µM | ACHN 18.5 µM | U-251 23 µM | SF-295 26.7 µM

CN1C(=O)CC2(C)c3cc(C=O)ccc3N(C)C12 (configuration not stated)
inactive: M19-MEL > 100 µM | DLD-1 > 100 µM | CCRF-CEM > 100 µM | NCI-H460 > 100 µM | COLO 205 > 100 µM | NCI-H226 > 100 µM | KM12 > 100 µM | OVCAR-4 > 100 µM | NCI-H23 > 100 µM | SK-OV-3 > 100 µM | LXFL 529 > 100 µM | ACHN > 100 µM | U-251 > 100 µM | SF-295 > 100 µM | SNB-75 69.5 µM

COP(=O)(OC)C(=O)N1N(c2ccc([N+](=O)[O-])cc2)C(=O)C(C)NC1(NNc1ccc([N+](=O)[O-])cc1)P(=O)(OC)OC (configuration not stated)
inactive: M19-MEL > 100 µM | DLD-1 > 100 µM | CCRF-CEM > 100 µM | NCI-H460 > 100 µM | COLO 205 > 100 µM | NCI-H226 > 100 µM | KM12 > 100 µM | OVCAR-4 > 100 µM | NCI-H23 > 100 µM | DMS-273 > 100 µM | LXFL 529 57.8 µM | ACHN > 100 µM | U-251 > 100 µM | SNB-75 > 100 µM

CC(=O)c1ccc(NC(=O)C(=O)CC(=O)c2sc(-n3nc(-c4ccccc4)cc3-c3ccccc3)nc2C)cc1
inactive: M19-MEL > 100 µM | DLD-1 > 100 µM | CCRF-CEM > 100 µM | NCI-H460 > 100 µM | COLO 205 > 100 µM | NCI-H226 > 100 µM | KM12 > 100 µM | OVCAR-4 > 100 µM | NCI-H23 > 100 µM | DMS-273 > 100 µM | SK-OV-3 > 100 µM | LXFL 529 > 100 µM | ACHN > 100 µM | U-251 > 100 µM | SF-295 > 100 µM

CC1(C)C2=CCCC(=O)[C@@]2(C)CC[C@@H]1O
inactive: M19-MEL > 100 µM | DLD-1 > 100 µM | CCRF-CEM > 100 µM | NCI-H460 > 100 µM | COLO 205 > 100 µM | NCI-H226 > 100 µM | KM12 > 100 µM | OVCAR-4 > 100 µM | NCI-H23 > 100 µM | DMS-273 > 100 µM | SK-OV-3 > 100 µM | LXFL 529 > 100 µM | ACHN > 100 µM | U-251 > 100 µM | SF-295 > 100 µM | SNB-75 > 100 µM

CC(=O)OCC1OC(n2c(-c3ccc(C)cc3)cc(-c3ccccc3)c(C#N)c2=O)C(OC(C)=O)C(OC(C)=O)C1OC(C)=O (configuration not stated)
inactive: M19-MEL > 100 µM | DLD-1 > 100 µM | CCRF-CEM > 100 µM | NCI-H460 > 100 µM | COLO 205 > 100 µM | NCI-H226 > 100 µM | KM12 > 100 µM | OVCAR-4 > 100 µM | NCI-H23 60.7 µM | SK-OV-3 > 100 µM | LXFL 529 > 100 µM | ACHN > 100 µM | U-251 > 100 µM | SNB-75 71.6 µM

O=C1c2ccccc2C(=O)C2C1C1C(=O)c3ccccc3C(=O)C21 (configuration not stated)
inactive: M19-MEL 45.4 µM | DLD-1 15.2 µM | CCRF-CEM > 100 µM | NCI-H460 > 100 µM | COLO 205 > 100 µM | KM12 49.7 µM | OVCAR-4 > 100 µM | NCI-H23 99.1 µM | DMS-273 > 100 µM | SK-OV-3 > 100 µM | LXFL 529 > 100 µM | ACHN > 100 µM | U-251 > 100 µM | SF-295 > 100 µM | SNB-75 57.4 µM

Cc1ccc(S(=O)(=O)NNC(=O)c2sc(-c3nc(C)c(C(=O)NNS(=O)(=O)c4ccc(C)cc4)s3)nc2C)cc1
inactive: M19-MEL > 100 µM | DLD-1 73.8 µM | CCRF-CEM 45.6 µM | NCI-H460 > 100 µM | COLO 205 > 100 µM | NCI-H226 50.7 µM | KM12 > 100 µM | NCI-H23 > 100 µM | SK-OV-3 > 100 µM | LXFL 529 62.8 µM | ACHN 97.9 µM | U-251 > 100 µM | SF-295 > 100 µM | SNB-75 58.3 µM

COC(=O)[C@]1(C)C(OC)=CC(=O)C2C1[C@H]1CCC[C@@H]21 (some centres not stated)
inactive: M19-MEL > 100 µM | DLD-1 > 100 µM | CCRF-CEM > 100 µM | NCI-H460 > 100 µM | COLO 205 > 100 µM | NCI-H226 > 100 µM | KM12 > 100 µM | NCI-H23 > 100 µM | SK-OV-3 > 100 µM | LXFL 529 > 100 µM | ACHN > 100 µM | U-251 > 100 µM | SF-295 > 100 µM | SNB-75 > 100 µM

N#CCCN(CCC#N)c1ccc(/C=C(\NC(=O)c2cc([N+](=O)[O-])ccc2Cl)C(=O)Nc2ccccc2)cc1
inactive: M19-MEL > 100 µM | DLD-1 18.5 µM | CCRF-CEM 5.87 µM | COLO 205 67.9 µM | NCI-H226 64.9 µM | KM12 > 100 µM | OVCAR-4 > 100 µM | NCI-H23 > 100 µM | DMS-273 54.2 µM | SK-OV-3 > 100 µM | LXFL 529 10.5 µM | ACHN 12.2 µM | U-251 > 100 µM | SF-295 64.6 µM

Cc1cc(O)nc(NN2C(Cl)C(=O)C2c2ccc([N+](=O)[O-])cc2)n1 (configuration not stated)
inactive: M19-MEL 4.26 µM | CCRF-CEM 2.15 µM | NCI-H460 4.04 µM | COLO 205 18.6 µM | KM12 > 10 µM | OVCAR-4 13.7 µM | NCI-H23 7.18 µM | DMS-273 8.34 µM | LXFL 529 7.67 µM | ACHN 7.4 µM | U-251 13.8 µM | SNB-75 2.58 µM

Cc1nc2nn(Cc3ccccc3)cc2c(=O)o1
inactive: M19-MEL > 100 µM | DLD-1 > 100 µM | CCRF-CEM > 100 µM | NCI-H460 > 100 µM | COLO 205 > 100 µM | NCI-H226 > 100 µM | KM12 > 100 µM | DMS-273 > 100 µM | LXFL 529 > 100 µM | ACHN > 100 µM | U-251 > 100 µM | SF-295 > 100 µM | SNB-75 > 100 µM

CCCCN1C(=O)NC(Cc2ccccc2)C1=O (configuration not stated)
inactive: M19-MEL > 100 µM | DLD-1 > 100 µM | NCI-H460 > 100 µM | NCI-H226 > 100 µM | KM12 > 100 µM | NCI-H23 > 100 µM | DMS-273 > 100 µM | LXFL 529 > 100 µM | ACHN > 100 µM | U-251 > 100 µM | SF-295 > 100 µM | SNB-75 > 100 µM

CC(C)(C)NNC(=O)/C(=C/c1ccc(Oc2ccc(Cl)c(Cl)c2)cc1)NC(=O)c1ccccc1
inactive: M19-MEL > 100 µM | DLD-1 31.1 µM | CCRF-CEM 69.5 µM | NCI-H460 40.6 µM | COLO 205 16.2 µM | NCI-H226 > 100 µM | KM12 > 100 µM | OVCAR-4 > 100 µM | NCI-H23 > 100 µM | DMS-273 21.5 µM | SK-OV-3 > 100 µM | LXFL 529 > 100 µM | ACHN > 100 µM | U-251 > 100 µM | SF-295 > 100 µM | SNB-75 > 100 µM

O=C(N/N=C/c1ccccc1O)N/N=C/c1ccccc1O
inactive: M19-MEL > 100 µM | DLD-1 > 100 µM | CCRF-CEM > 100 µM | NCI-H460 > 100 µM | COLO 205 > 100 µM | NCI-H226 > 100 µM | OVCAR-4 > 100 µM | NCI-H23 > 100 µM | DMS-273 > 100 µM | SK-OV-3 > 100 µM | LXFL 529 > 100 µM | ACHN > 100 µM | U-251 > 100 µM | SF-295 > 100 µM | SNB-75 > 100 µM

OC12c3ccccc3C3CCC4(OCCO4)C3C1c1ccccc12 (configuration not stated)
inactive: M19-MEL > 100 µM | DLD-1 > 100 µM | CCRF-CEM > 100 µM | NCI-H460 > 100 µM | COLO 205 > 100 µM | NCI-H226 > 100 µM | KM12 > 100 µM | OVCAR-4 > 100 µM | NCI-H23 > 100 µM | DMS-273 > 100 µM | SK-OV-3 > 100 µM | LXFL 529 > 100 µM | ACHN > 100 µM | U-251 > 100 µM | SF-295 > 100 µM | SNB-75 39.6 µM

CC(C)[C@@H](C(=O)N(C)[C@H](C(=O)N1CCC[C@H]1C(=O)OCc1ccccc1)C(C)C)N(C)C(=O)C(Cc1ccccc1)N(C)C(=O)[C@H](NC(=O)OC(C)(C)C)C(C)C (some centres not stated) (Boc-[dV][ξNMeF][NMeV][NMeV]P-OBn)
inactive: M19-MEL > 31.6 µM | DLD-1 > 31.6 µM | CCRF-CEM > 31.6 µM | NCI-H460 > 31.6 µM | COLO 205 > 82.6 µM | NCI-H226 > 100 µM | KM12 > 10 µM | DMS-273 > 31.6 µM | SK-OV-3 > 31.6 µM | LXFL 529 42.9 µM | U-251 > 31.6 µM | SF-295 26.5 µM | SNB-75 14 µM

O=c1[nH]c2c(O)cccc2c2cc3c(c(O)c12)OCO3 [NARCIPRIMINE]
inactive: M19-MEL 20.3 µM | DLD-1 14.6 µM | CCRF-CEM 10 µM | NCI-H460 14.6 µM | COLO 205 13.1 µM | NCI-H226 17.4 µM | KM12 16.7 µM | OVCAR-4 11.9 µM | DMS-273 18.7 µM | SK-OV-3 23.6 µM | LXFL 529 18.3 µM | ACHN 15.8 µM | U-251 16 µM | SF-295 20.1 µM | SNB-75 20.8 µM
